From patent US20210078958A1, “QUINAZOLINE DERIVATIVE AND USE THEREOF” (MEDSHINE DISCOVERY INC., priority 2017, published 2021) come the findings set out here.

In data set [1] the test system is subcutaneous xenograft tumor of human gastric cancer NCI-N87 cells. The data set can be described thus: Assay Example 5: in vivo pharmacodynamics, NCI-N87 xenograft. Details: species or system BALB/c nude mouse. The settings on record: 0.5 mg/kg. As for the experimental part: Purpose of the assay: to evaluate the in vivo efficacy of test compounds disclosed herein on subcutaneous xenograft tumor of human gastric cancer NCI-N87 cells in a BALB/c nude mouse model.
Animals of the assay: female BALB/c nude mice, 6-8 weeks old, weighing 18-22 grams; supplier: shanghai sippr bk laboratory animals Ltd.
Human gastric cancer NCI-N87 cells were cultured in monolayer in vitro. The culture conditions were RPMI-1640 medium plus 10% fetal bovine serum, 100 U/mL penicillin, 100 μg/mL streptomycin, 37° C., 5% CO2. The passaging was performed by conventional digestion with trypsin-EDTA twice a week. When the cell saturation was 80%-90%, the cells were collected, counted and inoculated.
0.2 mL (10×10^6) of NCI-N87 cells (PBS+Matrigel, 1:1) were inoculated subcutaneously on the right back of each mouse. When the average tumor volume reached 156 mm^3, administration to each group was started.
The test compounds were formulated into a 0.05 mg/mL clear solution in the solvents of 10% NMP (N-methylpyrrolidone)+10% ethylene glycol stearate+80% water.
The assay index is to investigate whether tumor growth is inhibited, delayed or cured. Tumor diameter was measured twice a week with a vernier caliper. The calculation formula of tumor volume is: V=0.5a×b^2, wherein a and b represent the long and short diameters of tumor, respectively.
The antitumor efficacy of the compounds were evaluated by TGI (%) or tumor proliferation rate T/C (%). TGI (%) reflects the tumor growth inhibition rate. TGI (%) is calculated as follows: TGI (%)=[1−(average tumor volume at the end of administration for a certain treatment group−average tumor volume at the beginning of administration for this treatment group)/(average tumor volume at the end of treatment for a solvent control group−average tumor volume at the beginning of administration for this solvent control group)]×100%.
Tumor proliferation rate T/C (%): the calculation formula is as follows: T/C (%)=average tumor volume at the end of administration for a certain treatment group/average tumor volume at the end of treatment for the solvent control group×100%.
Statistical analysis included the mean and standard error (SEM) of tumor volume at each time point in each group (See Table 5-1 for specific data). […] The comparison between two groups was analyzed by T-test, and the comparison among three or more groups was analyzed by one-way ANOVA. […] All data analysis was carried out with SPSS 17.0. p<0.05 was considered a significant difference.

Data set [2] in a line: Assay Example 7: pharmacokinetics in mice. It counts as in vivo. The note with it: mouse, female BALB/c mice, plasma, dose not given. As for the experimental part:
Purpose of the assay: this assay aims to investigate in vivo plasma pharmacokinetics of the example compounds disclosed herein and the reference compound in female BALB/c mice after the single intravenous injection and intragastric administration thereof.
Animals of the assay: female BALB/c nude mice, 7-9 weeks old, weighted 17-23 grams; supplier: shanghai sippr bk laboratory animals Ltd.
Sample collection: at each time point, a 0.03 mL blood sample was collected from the saphenous vein of the test animal by puncture, and the actual blood collection time was recorded. All blood samples were added into commercial EDTA-K2 anticoagulation tubes with a specification of 1.5 mL (the supplier was Jiangsu KANGJIAN Medical Apparatus Co., Ltd.). Within half an hour after the blood sample was collected, the blood sample was centrifuged at 3000 g at 4° C. for 10 minutes, and the supernatant plasma was drawn, quickly placed in dry ice, and stored in a refrigerator at −80° C. for LC-MS/MS analysis.
Data analysis: Plasma concentrations were processed using a non-compartmental model of WinNonlin™ Version6.3 (Pharsight, MountainView, Calif.) pharmacokinetic software, and pharmacokinetic parameters Cmax, Tmax, T1/2, and AUC0-last were calculated using a linear log trapezoid method.

The target in data set [3] is HER4 (ErbB4) (Homo sapiens, UniProt Q15303). The data set can be described thus: in vitro enzyme activity, HER4 (ErbB4). The note with it: human ErbB4, [γ-33P]ATP, poly(Glu, Tyr) substrate. The class given is biochemical. As for the experimental part:
(§1) The purpose of this assay is to detect the in vitro inhibitory activity of compounds on HER1 (ErbB1), HER2 (ErbB2), and HER4 (ErbB4). The enzymes used in this assay are human ErbB1, ErbB2 and ErbB4. Eurofins Pharma Discovery Service provided the method for activity detection.
(§2) Steps and Method of the Assay (96-Well Plate):
(§3) A buffer solution of the test compounds in a dilution of 5-fold (5 μL), polypeptide substrate poly(Glu, Tyr) (4:1) (2.5 μL), ErbB (4-20 ng, 2.5 μL), MnCl2 (50 mM, 1.25 μL), dH2O (3.75 μL), and [γ-^33P]ATP (10 μL) were added, and incubated at 30° C. for 10 minutes. The reaction was terminated by adding 3% phosphoric acid. 10 μL of the sample was taken and transferred to Filtermate A. The filter disc was washed 3 times with 75 mM phosphoric acid and once with methanol. The filter disc was transferred to a sealed plastic bag and the scintillation mixture (4 mL) was added. The intensity of the emitted photon was detected by a scintillation luminescence counter. The CPM (times/min) of the enzyme sample was compared with the CPM of the internal control sample. The level of photon intensity reflected the degree of the tyrosine kinase activity.

The target of data set [4] is HER2 (ErbB2) (Homo sapiens, UniProt P04626). The data set can be described thus: in vitro enzyme activity, HER2 (ErbB2). It counts as biochemical. The note with it: human ErbB2, [γ-33P]ATP, poly(Glu, Tyr) substrate. The method, then: as §1, §2, §3
The target of data set [5] is HER1 (ErbB1) (Homo sapiens, UniProt P00533). The data set can be described thus: in vitro enzyme activity, HER1 (ErbB1). It counts as biochemical. The note with it: human ErbB1, [γ-33P]ATP, poly(Glu, Tyr) substrate. As for the experimental part: as §1, §2, §3
In data set [6] the test system is NCI-N87 cell. The data set can be described thus: inhibitory activity on cell proliferation (Cell-Titer-Glo), NCI-N87. The note with it: Homo sapiens. It counts as cell-based. From the text:
(§4) Purpose of the assay: to detect the inhibitory activity of the test compounds on cell proliferation.
(§5) Principle of the assay: the luciferase in a Cell-Titer-Glo reagent produces oxidized luciferin with luciferin, oxygen and ATP as reaction substrates, and releases energy in the form of light. Since the luciferase reaction requires ATP, the total amount of light generated by the reaction is proportional to the total amount of ATP that reflects cell viability.
(§6) Cell Titer-Glo cell viability assay kit with luminescence (Promega #G7573)
(§7) According to the schematic diagram of the cell seed plate, cells were seeded in a 384- or 96-well plate at a density of 1000 cells per well and 25 μL per well, and 25 μL of PBS was added to the wells near edge of the place where no cells were seeded.
(§8) (1) The stock solution of the compounds has a concentration of 10 mM, and the compounds were diluted with DMSO to an initial concentration of 4 mM. The compounds were added to the plate with stock solution of compounds, 9 μL per well.
(§9) (2) The compounds were diluted with an ECHO liquid workstation, where 125 nL of compounds were added to each well of the cell plate, 125 nL of DMSO was added to each of the cell well in columns 2 and 23, and 125 nL of DMSO was added to each PBS well in columns 1 and 24.
(§10) 2.3 After addition of the compounds, the cell plate was centrifuged at 1000 rpm for 1 min, and then placed in a 37° C., 5% CO2 incubator for incubation for 3 days.
(§11) The cell plate was taken out from the incubator and equilibrated at room temperature for 30 minutes. 25 μL of Cell-Titer-Glo reagent was added to each well, shaken for one minute to allow well mixed, and centrifuged at 1000 rpm for 1 minute. After 10 minutes, the plate was read on PerkinElmer Envision, and the […] reading time was set to 0.2 second.

The subject of data set [7] is BT-474 cell. The data set can be described thus: inhibitory activity on cell proliferation (Cell-Titer-Glo), BT-474. The class given is cell-based. The note with it: Homo sapiens.
Description: as §4, §5, §6, §7, §8, §9, §10, §11

The subject of data set [8] is OE21 cell. The data set can be described thus: inhibitory activity on cell proliferation (Cell-Titer-Glo), OE21. The class given is cell-based. The note with it: Homo sapiens, OE21, 72 h, incubation for 3 days.
Description: as §4, §5, §6, §7, §8, §9, §10, §11

Data set [9] concerns OE19 cells. The data set can be described thus: CTG assay of OE19 cells. The settings on record: Homo sapiens, 72 hours of cell culture, Cell Titer Glo. It counts as cell-based. The method, then:
OE19 cells with saturation of 80%-90% were digested with trypsin, centrifuged, resuspended and counted. The concentration of cells was adjusted to […]. OE19 cells were added to a 96-well cell culture plate to 8000 OE19 cells per well. The cells were cultured in a cell incubator containing 5% CO2 at 37° C. overnight.
The stock solution of the test compounds was serially 3-fold diluted with DMSO to a total of 10 concentrations. Before the start of the assay, the serially diluted test compounds were further diluted to 10× compound solutions (the compound with a highest concentration contains 1% DMSO) with cell culture medium under sterile conditions. The prepared 10× compound solutions were added to the cell culture plate, and the 10 μL compound solution was added to each well. In this way, the final concentrations of staurosporine as the standard control and all the test compounds were obtained starting from […] as the initial concentration in a 3-fold serial dilution to get 10 test concentrations.
After 72 hours of cell culture, the 96-well cell culture plate was taken out. Cell Titer Glo reagent was added at […], mixed, centrifuged, and incubated at room temperature in the dark for 10 minutes. The cell plate was placed in Envision for reading.
The inhibition rate was calculated according to original data as follows:
Inhibition %=(ZPE−sample detection value)/(ZPE−HPE)×100%
The well containing 10 mM staurosporine on DAY3 (the first day of the assay is the day when compounds were added, and DAY3 is the day when reading is perfomed) was used as the HPE (100% inhibition control) well, and the well containing 0.1% DMSO on DAY3 was used as the ZPE (0% inhibition control) well. Each concentration of test compounds was tested in duplicate.
Non-linear regression analysis was performed using the processed data and GraphPad Prism 6 analysis software to obtain a dose-response curve, and the half-inhibitory concentration (IC50) of the test compounds on OE19 cells was calculated.

The mark [10] stands for this setting: NCI-N87, footnote d: initial dilution concentration of compounds is 10 μM.
The mark [11] stands for this setting: BT-474, footnote d: initial dilution concentration of compounds is 10 μM.
The mark [12] stands for this setting: NCI-N87, 72 h, incubation for 3 days, Cell-Titer-Glo.

Sequence of HER4 (ErbB4) (Q15303 26-1308): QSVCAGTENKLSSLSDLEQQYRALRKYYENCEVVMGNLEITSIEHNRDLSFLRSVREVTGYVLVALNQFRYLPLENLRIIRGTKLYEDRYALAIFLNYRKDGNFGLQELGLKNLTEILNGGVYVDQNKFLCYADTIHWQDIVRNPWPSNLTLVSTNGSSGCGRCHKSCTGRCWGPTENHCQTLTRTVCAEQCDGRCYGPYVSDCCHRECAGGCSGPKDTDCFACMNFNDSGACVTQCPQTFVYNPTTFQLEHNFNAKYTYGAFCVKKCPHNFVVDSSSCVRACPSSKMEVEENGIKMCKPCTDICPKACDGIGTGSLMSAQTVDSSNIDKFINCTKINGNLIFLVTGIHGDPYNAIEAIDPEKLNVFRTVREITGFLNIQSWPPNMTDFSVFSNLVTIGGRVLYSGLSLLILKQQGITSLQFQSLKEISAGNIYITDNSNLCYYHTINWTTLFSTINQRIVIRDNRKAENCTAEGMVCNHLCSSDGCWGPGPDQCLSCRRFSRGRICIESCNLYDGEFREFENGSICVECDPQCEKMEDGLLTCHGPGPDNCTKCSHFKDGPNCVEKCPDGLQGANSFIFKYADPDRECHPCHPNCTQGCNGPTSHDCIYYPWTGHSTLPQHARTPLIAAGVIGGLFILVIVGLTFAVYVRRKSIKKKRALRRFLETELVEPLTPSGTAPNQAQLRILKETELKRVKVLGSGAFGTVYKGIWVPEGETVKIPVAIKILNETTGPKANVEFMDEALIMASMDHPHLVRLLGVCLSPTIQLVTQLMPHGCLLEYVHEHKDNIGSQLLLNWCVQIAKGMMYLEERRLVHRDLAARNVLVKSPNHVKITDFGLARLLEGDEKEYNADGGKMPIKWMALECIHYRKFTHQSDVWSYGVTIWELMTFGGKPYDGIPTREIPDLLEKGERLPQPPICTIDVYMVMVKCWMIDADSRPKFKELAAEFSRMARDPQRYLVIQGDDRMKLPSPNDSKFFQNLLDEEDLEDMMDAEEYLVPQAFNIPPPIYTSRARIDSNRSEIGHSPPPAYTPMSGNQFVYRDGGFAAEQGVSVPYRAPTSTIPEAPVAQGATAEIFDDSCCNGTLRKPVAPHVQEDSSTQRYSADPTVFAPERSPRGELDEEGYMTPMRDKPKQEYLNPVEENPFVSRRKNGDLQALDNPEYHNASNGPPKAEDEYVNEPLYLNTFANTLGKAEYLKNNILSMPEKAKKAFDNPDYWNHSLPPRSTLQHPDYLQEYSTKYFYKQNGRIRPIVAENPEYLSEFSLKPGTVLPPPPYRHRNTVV
Sequence of HER1 (ErbB1) (P00533 25-1210): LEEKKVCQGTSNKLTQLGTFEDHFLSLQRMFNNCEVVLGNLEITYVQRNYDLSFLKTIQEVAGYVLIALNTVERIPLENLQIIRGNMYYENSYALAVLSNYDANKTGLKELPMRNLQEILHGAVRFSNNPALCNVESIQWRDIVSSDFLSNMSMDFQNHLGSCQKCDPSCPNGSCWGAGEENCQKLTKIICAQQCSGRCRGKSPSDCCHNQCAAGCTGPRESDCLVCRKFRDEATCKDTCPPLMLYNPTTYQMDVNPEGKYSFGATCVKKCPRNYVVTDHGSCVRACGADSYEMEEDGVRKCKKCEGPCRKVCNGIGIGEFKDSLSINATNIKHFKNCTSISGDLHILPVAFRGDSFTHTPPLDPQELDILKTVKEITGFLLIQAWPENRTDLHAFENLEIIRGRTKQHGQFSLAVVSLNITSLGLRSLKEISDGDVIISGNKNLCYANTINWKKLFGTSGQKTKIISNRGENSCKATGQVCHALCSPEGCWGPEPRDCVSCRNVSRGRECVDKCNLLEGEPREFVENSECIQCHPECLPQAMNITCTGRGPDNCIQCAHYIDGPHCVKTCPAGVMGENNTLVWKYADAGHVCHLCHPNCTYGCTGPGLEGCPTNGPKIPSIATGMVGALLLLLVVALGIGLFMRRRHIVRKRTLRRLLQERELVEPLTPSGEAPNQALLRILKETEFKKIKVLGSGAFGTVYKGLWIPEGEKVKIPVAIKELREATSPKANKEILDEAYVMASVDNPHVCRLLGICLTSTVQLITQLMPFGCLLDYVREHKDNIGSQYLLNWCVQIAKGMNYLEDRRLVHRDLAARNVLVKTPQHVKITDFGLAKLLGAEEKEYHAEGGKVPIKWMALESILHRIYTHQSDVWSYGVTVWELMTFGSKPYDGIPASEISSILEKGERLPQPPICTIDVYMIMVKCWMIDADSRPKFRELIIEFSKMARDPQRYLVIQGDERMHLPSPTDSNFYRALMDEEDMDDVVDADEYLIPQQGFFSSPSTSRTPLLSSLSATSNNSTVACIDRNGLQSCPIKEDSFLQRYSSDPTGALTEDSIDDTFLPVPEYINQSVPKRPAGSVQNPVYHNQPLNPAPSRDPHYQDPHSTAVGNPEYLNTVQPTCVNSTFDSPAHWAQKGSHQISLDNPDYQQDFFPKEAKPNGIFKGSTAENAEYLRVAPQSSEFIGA
Sequence of HER2 (ErbB2) (P04626 23-1255): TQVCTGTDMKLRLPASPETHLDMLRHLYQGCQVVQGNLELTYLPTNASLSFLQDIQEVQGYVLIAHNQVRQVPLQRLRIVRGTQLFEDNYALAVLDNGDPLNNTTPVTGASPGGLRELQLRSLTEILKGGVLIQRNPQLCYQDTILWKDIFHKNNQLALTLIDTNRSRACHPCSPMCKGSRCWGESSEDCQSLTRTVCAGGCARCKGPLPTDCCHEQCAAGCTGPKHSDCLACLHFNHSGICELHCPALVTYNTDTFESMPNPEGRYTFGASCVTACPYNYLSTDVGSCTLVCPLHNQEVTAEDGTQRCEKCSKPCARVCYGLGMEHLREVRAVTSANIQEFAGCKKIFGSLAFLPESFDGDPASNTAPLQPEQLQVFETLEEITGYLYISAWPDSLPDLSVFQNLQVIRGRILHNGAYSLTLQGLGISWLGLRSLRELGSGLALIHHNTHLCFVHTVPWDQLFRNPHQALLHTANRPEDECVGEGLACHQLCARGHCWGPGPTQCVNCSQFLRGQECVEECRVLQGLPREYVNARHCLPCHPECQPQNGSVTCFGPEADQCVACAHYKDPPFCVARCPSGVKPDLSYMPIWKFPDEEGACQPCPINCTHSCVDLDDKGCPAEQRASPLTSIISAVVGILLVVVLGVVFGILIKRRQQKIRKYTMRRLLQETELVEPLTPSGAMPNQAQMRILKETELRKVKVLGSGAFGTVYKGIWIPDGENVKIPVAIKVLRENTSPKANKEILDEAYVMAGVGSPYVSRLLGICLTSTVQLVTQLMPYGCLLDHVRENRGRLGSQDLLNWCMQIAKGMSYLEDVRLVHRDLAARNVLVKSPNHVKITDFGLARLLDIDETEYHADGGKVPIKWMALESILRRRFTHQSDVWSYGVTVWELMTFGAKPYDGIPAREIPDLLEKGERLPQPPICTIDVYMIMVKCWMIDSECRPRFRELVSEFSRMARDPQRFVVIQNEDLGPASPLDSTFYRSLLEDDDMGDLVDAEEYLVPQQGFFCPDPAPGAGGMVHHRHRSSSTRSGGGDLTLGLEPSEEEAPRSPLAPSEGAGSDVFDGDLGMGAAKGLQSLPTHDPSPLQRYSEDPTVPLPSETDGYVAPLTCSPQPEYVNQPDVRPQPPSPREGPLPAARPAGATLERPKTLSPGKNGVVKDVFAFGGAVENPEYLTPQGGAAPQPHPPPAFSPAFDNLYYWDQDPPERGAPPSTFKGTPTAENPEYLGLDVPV

Take `C=CC(=O)N1CCC(Nc2cc3c(Nc4ccc(F)c(Cl)c4)ncnc3cc2OC)CC1` [Control compound 2]: the “Tumor volume (mm^3) (Day 21)” value in data set [1] (NCI-N87 xenograft, Mean + SEM) worked out at 541 ± 88 mm^3. In addition, in data set [1] (day 21), the “T/C (%)” value is on record as 89.35% and the “TGI (%)” value is listed as 18.83%. Moreover, in data set [2] (oral), the Tmax was determined as 2 h and the half-life is 90 min. In data set [2] (oral plasma exposure), this compound registered an AUC(0-t) of 82 µM·h and a Cmax of 15.3 µM.

Regarding `C=CC(=O)N1C[C@H]2C[C@@H](C1)[C@H]2Nc1cc2c(Nc3ccc(Cl)c(Cl)c3F)ncnc2cc1OC` [Example 9], the IC50 in data set [3] was 8 nM; in [4], 13 nM; in [5], 9 nM; in data set [6] (setting [10]) it was 0.9 nM; in data set [7] (setting [11]) it was 2.1 nM.

For `C=CC(=O)N1C[C@H]2C[C@@H](C1)[C@H]2Oc1cc2c(Nc3ccc(Cl)c(Cl)c3F)ncnc2cc1OCCO` [Example 13], the IC50 is 7 nM in data set [3]; 8 nM in data set [4]; 5 nM in [5]; 1.6 nM in [6] (setting [10]); 2 nM in [7] (setting [11]).

Consider `C=CC(=O)N1C[C@H]2C[C@@H](C1)[C@H]2Oc1cc2c(Nc3ccc(Cl)c(Cl)c3F)ncnc2cc1OCCCN1CCOCC1` [Example 18], for which the IC50 in data set [3] came out at 5 nM; in [4], 12 nM; in [5] it was 9 nM; in data set [6] (setting [10]), 1.3 nM; in data set [7] (setting [11]), 2.4 nM.

Regarding `C=CC(=O)N1[C@@H]2CC[C@H]1C[C@H](Oc1cc3c(Nc4ccc(Cl)c(Cl)c4F)ncnc3cc1OCC)C2` [Example 21], the IC50 is 3 nM in [3]; 5 nM in data set [4]; 12 nM in data set [5]; 0.35 nM in [6] (setting [12]); 0.46 nM in data set [7] (BT-474, 72 h, incubation for 3 days, Cell-Titer-Glo).

With `C=CC(=O)N1[C@@H]2CC[C@H]1C[C@H](Oc1cc3c(Nc4ccc(F)c(Cl)c4F)ncnc3cc1OC)C2` [Example 34], the IC50 is 2 nM in data set [3]; 4 nM in [4]; 5 nM in data set [5]; 0.27 nM in data set [8]; 0.42 nM in data set [6] (setting [12]); 0.001 nM in data set [9].

`C=CC(=O)N1[C@@H]2CC[C@H]1C[C@H](Nc1cc3c(Nc4ccc(F)c(Cl)c4F)ncnc3cc1OC)C2` [Example 48]: the IC50 came out at 4 nM in data set [3]; 11 nM in data set [4]; 9 nM in data set [5]; 0.17 nM in [8]; 0.24 nM in [9].
